Earlier results in the PKSmart pharmacokinetics tables (Seal et al. 2025).

Experiment: Lombardo et al. 2013, J Clin Pharmacol 53:178, doi 10.1177/0091270012440282
Conditions: for Vd / clearance: in vivo, iv; for fraction unbound: plasma

Compound	Vd (rat)	clearance (rat)	fraction unbound (rat)	Vd (monkey)	clearance (monkey)	Vd (dog)	clearance (dog)	fraction unbound (dog)	fraction unbound (monkey)
CC1C(=O)O[C@H]2[C@H](O)[C@@]34[C@H]5C[C@@H](C(C)(C)C)[C@@]36C(O)C(=O)O[C@H]6O[C@@]4(C(=O)O5)[C@@]12O (some centres not stated)	3.5 L/kg	60 mL/min/kg							
COc1ccc2nc([S+](O)Cc3ncc(C)c(OC)c3C)[n-]c2c1 (configuration not stated)	0.44 L/kg	53 mL/min/kg	0.19						
CCC#CC[C@H](C)[C@H](O)C#C[C@@H]1[C@H]2C/C(=C/COCCCC(=O)O)C[C@H]2C[C@H]1O	1.5 L/kg	170 mL/min/kg		1.6 L/kg	63.1 mL/min/kg				
[H]/N=C(\N)c1ccc(OCCCCCOc2ccc(/C(N)=N/[H])cc2)cc1	10.1 L/kg	112 mL/min/kg	0.4			6.6 L/kg	60.6 mL/min/kg	0.266	
CC(=O)Nc1ccc(O)cc1			0.27						
CCCCC[C@H](O)CC[C@@H]1[C@H]2Cc3cccc(OCC(=O)O)c3C[C@H]2C[C@H]1O						0.11 L/kg	35.8 mL/min/kg		
Oc1ccc2c(c1)[C@]13CCCC[C@@]1(O)[C@H](C2)N(CC1CCC1)CC3	4.8 L/kg	91.2 mL/min/kg	0.34			8.4 L/kg	58 mL/min/kg	0.369	
OC(CNCC(O)C1CCc2cc(F)ccc2O1)C1CCc2cc(F)ccc2O1 (configuration not stated)	6.2 L/kg	49 mL/min/kg	0.015						
CONC(C(=O)N=C1C(=O)N2C(C(=O)[O-])=C(C[N+]34CCC(C(N)=O)(CC3)CC4)CS[C@H]12)c1nsc(N)n1 (some centres not stated)						0.23 L/kg	3.3 mL/min/kg		
Cc1cccc([C@H](C)c2cnc[nH]2)c1C	3.24 L/kg	59.4 mL/min/kg							
CC1(C)SC2C(NC(=O)C(NC(=O)N3CCNC3=O)c3ccccc3)C(=O)N2C1C(=O)O (configuration not stated)						0.27 L/kg	2.8 mL/min/kg		
NC(=O)C(c1ccccc1)(c1ccccc1)[C@@H]1CCN(CCc2ccc3c(c2)CCO3)C1	7 L/kg	59 mL/min/kg				6.8 L/kg	39 mL/min/kg		
CC1C(=O)O[C@H]2C[C@@]34[C@H]5C[C@@H](C(C)(C)C)[C@@]36C(O)C(=O)O[C@H]6O[C@@]4(C(=O)O5)[C@@]12O (some centres not stated)	4.3 L/kg	65 mL/min/kg							
OC(CCN1CCCCC1)(c1ccccc1)C1CC2C=CC1C2 (configuration not stated)			0.31			9.7 L/kg	27 mL/min/kg	0.19	
CN(c1nc2ccccc2s1)C1CCN(CC(O)COc2ccc(F)cc2)CC1 (configuration not stated)	5.8 L/kg	35.9 mL/min/kg	0.016						
O=C(CCCCCCC(O)=NO)Nc1ccccc1	1.6 L/kg	130 mL/min/kg						0.458	
[H]/N=C(\N)c1ccc(C(=O)NC(Cc2ccc(O)cc2)C(=O)N2CCC(OCC(=O)O)CC2)cc1 (configuration not stated)	0.24 L/kg			0.29 L/kg		0.75 L/kg			

Compound	Vd (rat)	clearance (rat)	fraction unbound (rat)	Vd (monkey)	clearance (monkey)	Vd (dog)	clearance (dog)	fraction unbound (dog)	fraction unbound (monkey)
Cc1nnc(C(C)C)n1C1C[C@H]2CC[C@@H](C1)N2CC[C@H](NC(=O)C1CCC(F)(F)CC1)c1ccccc1 (some centres not stated)	2.53 L/kg	74 mL/min/kg	0.49			2.32 L/kg	21 mL/min/kg	0.36	
CCN[C@@H]1C[C@H](N)[C@@H](OC2OC(CN)=CCC2N)[C@H](O)[C@H]1O[C@H]1OC[C@](C)(O)[C@H](NC)[C@H]1O (some centres not stated)						0.34 L/kg	3.4 mL/min/kg		
C[C@@H](O)C1C(=O)N2C(C(=O)O)=C(SCC/N=C/N)C[C@H]12 (some centres not stated)		14.5 mL/min/kg	1		5.7 mL/min/kg		4.3 mL/min/kg	1	0.975
NC(N)=Nc1nc(CSCCC(N)=NS(N)(=O)=O)cs1	0.8 L/kg	22 mL/min/kg	0.47	2.1 L/kg	15 mL/min/kg	0.79 L/kg	8.6 mL/min/kg	0.72	0.13
CN1C2CCC[C@@H]1CC(NC(=O)c1nn(C)c3ccccc13)C2 (some centres not stated)	16.7 L/kg	824 mL/min/kg							
O=C(O)CCCCO/N=C(/c1cccnc1)c1cccc(C(F)(F)F)c1	0.78 L/kg	2 mL/min/kg	0.05						
CC(C)(N)CC(=O)NC1CCc2ccccc2N(Cc2ccc(-c3ccccc3-c3nn[nH]n3)cc2)C1=O (configuration not stated)	0.15 L/kg	2.7 mL/min/kg	0.02	0.16 L/kg	5.7 mL/min/kg	0.34 L/kg	19.3 mL/min/kg	0.86	0.06
O=C(OC1CC2CC3C[C@@H](C1)N2CC3=O)c1c[nH]c2ccccc12 (some centres not stated)	26 L/kg	72 mL/min/kg			77 mL/min/kg		27 mL/min/kg	0.5	0.5
C[C@@H](O)C1C(=O)N2C(C(=O)O)=C(S[C@H]3CC(C(=O)N4CC[C@H](NC(=O)CN=C(N)N)C4)N(C)C3)[C@H](C)[C@H]12 (some centres not stated)	0.2 L/kg	15.7 mL/min/kg	0.95	0.18 L/kg	1.7 mL/min/kg	0.25 L/kg	3.96 mL/min/kg	0.928	0.85
Valproic Acd	0.66 L/kg	4.2 mL/min/kg	0.366	0.25 L/kg	4.2 mL/min/kg	0.33 L/kg	3.03 mL/min/kg	0.215	0.22
CN[C@@H]1C[C@H]2O[C@@](C)([C@@H]1OC)n1c3ccccc3c3c4c(c5c6ccccc6n2c5c31)C(=O)N[C@@H]4O	16.7 L/kg	65 mL/min/kg				6.09 L/kg	10.2 mL/min/kg	0.0074	
C[C@@H](O)C1C(=O)N2C(C(=O)O)=C(S[C@@H]3CN[C@H](CNS(N)(=O)=O)C3)[C@H](C)[C@H]12 (some centres not stated)		35.7 mL/min/kg	0.65		7.7 mL/min/kg		4.7 mL/min/kg	0.9	0.94
CC(C)(C)[C@]1(O)C[C@@H]2OC(=O)C[C@@]23C(=O)O[C@@H]2OC(=O)C(O)[C@]213 (some centres not stated)	10 L/kg	140 mL/min/kg							
COC(=O)Nc1nc2ccc(C(=O)c3ccccc3)cc2[nH]1	2.6 L/kg	9.8 mL/min/kg							
CC(C)=CCN1CC[C@@]2(C)c3cc(O)ccc3C[C@@H]1[C@@H]2C				9.62 L/kg	56.6 mL/min/kg				
COCCc1ccc(OCC(O)CNC(C)C)cc1 (configuration not stated)	6.3 L/kg	87.2 mL/min/kg	0.69	14 L/kg	21.9 mL/min/kg			0.756	0.825
